The test addresses T1, human C5aR(CD88) (Homo sapiens, UniProt P21730).
T1 construct: expressed in transfected cells; host or cells: rat basophilic leukemia cells (RBL)
T1 sequence (P21730 1-350): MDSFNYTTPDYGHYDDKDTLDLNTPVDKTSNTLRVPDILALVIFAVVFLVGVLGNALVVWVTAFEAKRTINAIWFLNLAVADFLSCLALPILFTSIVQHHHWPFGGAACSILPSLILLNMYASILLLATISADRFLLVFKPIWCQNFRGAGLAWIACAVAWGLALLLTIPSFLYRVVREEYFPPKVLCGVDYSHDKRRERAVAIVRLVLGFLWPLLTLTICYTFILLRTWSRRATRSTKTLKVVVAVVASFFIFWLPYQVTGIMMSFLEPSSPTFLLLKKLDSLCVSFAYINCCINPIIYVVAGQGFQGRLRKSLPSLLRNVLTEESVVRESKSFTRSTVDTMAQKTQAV
Kind of test: Determination of the IC50 value in an enzyme release assay (functional assay, antagonistic activity). Type of test: cell-based. As to conditions: antagonistic activity, IC50 group in enzyme release assay, RBL cells expressing human C5aR(CD88).

Read-outs that look alike come from different tables or passages of the source. Starred links: 1 amine or outer side, 2 acyl side, 3 side chain; linkers in the order of their positions; H or OH if unused. Positions of bridges follow the written chain, without caps; N, C: chain ends. Non-standard residues stand in square brackets, D forms with d. Residues, ends and D or L forms follow the SMILES beside them. *: point of attachment. Phe(4-guanidino) = N=C(N)Nc1ccc(C[C@H](N)C(=O)O)cc1; Phe(Nα-CONH2) = NC(=O)N[C@@H](Cc1ccccc1)C(=O)*; dβ3hPhg = O=C(C[C@H](N[*:1])c1ccccc1)[*:2]; Phe(4-NH2) = Nc1ccc(C[C@H](N)C(=O)O)cc1; X5 = CCN(CC)CCC[C@H](N[*:1])C(=O)[*:2]; dPhe(2-Me) = Cc1ccccc1C[C@@H](N)C(=O)O; Bta = N[C@@H](Cc1csc2ccccc12)C(=O)O; d(hCha) = N[C@H](CCC1CCCCC1)C(=O)O; Hydrocinnamoyl = O=C(CCc1ccccc1)*; Hyp = O=C(O)[C@@H]1C[C@@H](O)CN1; Cit = NC(=O)NCCC[C@H](N)C(=O)O; dCha = N[C@H](CC1CCCCC1)C(=O)O; Phg = N[C@H](C(=O)O)c1ccccc1; Nle = CCCC[C@H](N)C(=O)O; Orn = NCCC[C@H](N)C(=O)O; Aze = O=C(O)[C@@H]1CCN1; Dab = NCC[C@H](N)C(=O)O; Fluoroacetyl = O=C(CF)*; NBuGly = CCCCNCC(=O)O; Piv = CC(C)(C)C(=O)*; Moc = COC(=O)*

In the case of `CC(=O)N[C@@H](CC(=O)N[C@@H](CCCN)C(=O)N1CCC[C@H]1C(=O)N[C@H](CC1CCCCC1)C(=O)N[C@@H](Cc1csc2ccccc12)C(=O)N[C@@H](Cc1ccccc1)C(N)=O)c1ccccc1` [Compound 125, Ac-Eby-Orn-Pro-cha-Bta-Phe-NH2] (Ac-[dβ3hPhg][Orn]P[dCha][Bta]F-NH2), under “read-out: activity (group)”, the IC50 fell in the range of 20 to 50 nM.

On to `CC(=O)N[C@H](C(=O)N[C@@H](CCCN)C(=O)N1CCC[C@H]1C(=O)N[C@H](CC1CCCCC1)C(=O)N[C@@H](Cc1csc2ccccc12)C(=O)N[C@@H](Cc1ccccc1)C(N)=O)c1ccccc1` [Compound 126, Ac-Phg-Orn-Pro-cha-Bta-Phe-NH2] (Ac-[Phg][Orn]P[dCha][Bta]F-NH2), for which the IC50 (read-out: activity (group)) lay in the range of 50 to 200 nM.

Regarding `CC(=O)N[C@@H](Cc1ccccc1)C(=O)N[C@@H](Cc1ccc(N)cc1)C(=O)N1CCC[C@H]1C(=O)N[C@H](CC1CCCCC1)C(=O)N[C@@H](Cc1csc2ccccc12)C(=O)N[C@@H](Cc1ccccc1)C(N)=O` [Compound 127, Ac-Phe-Paf-Pro-cha-Bta-Phe-NH2] (Ac-F[Phe(4-NH2)]P[dCha][Bta]F-NH2), the IC50 (read-out: activity (group)) lay within 200 to 2000 nM.

`NCCC[C@H](NC(=O)[C@H](Cc1ccccc1)NC(N)=O)C(=O)N1CCC[C@H]1C(=O)N[C@H](CC1CCCCC1)C(=O)N[C@@H](Cc1csc2ccccc12)C(=O)N[C@@H](Cc1ccccc1)C(N)=O` [Compound 128, H2N—CO-Phe-Orn-Pro-cha-Bta-Phe-NH2] ({Phe(Nα-CONH2)}-[Orn]P[dCha][Bta]F-NH2): under “read-out: activity (group)”, the IC50 lay in the range of 20 to 50 nM.

As to `COC(=O)N[C@@H](Cc1ccccc1)C(=O)N[C@@H](CCCN)C(=O)N1CCC[C@H]1C(=O)N[C@H](CC1CCCCC1)C(=O)N[C@@H](Cc1csc2ccccc12)C(=O)N[C@@H](Cc1ccccc1)C(N)=O` [Compound 129, Me-O—CO-Phe-Orn-Pro-cha-Bta-Phe-NH2] (Moc-F[Orn]P[dCha][Bta]F-NH2), the IC50 (read-out: activity (group)) lay within 50 to 200 nM.

Take `CC(=O)N[C@@H](Cc1ccccc1)C(=O)N[C@@H](CCCN)C(=O)N1CCC[C@H]1C(=O)N[C@H](CCC1CCCCC1)C(=O)N[C@@H](Cc1c[nH]c2ccccc12)C(=O)N[C@@H](Cc1ccccc1)C(=O)O` [Compound 132, Ac-Phe-Orn-Pro-hch-Trp-Phe-OH] (Ac-F[Orn]P[d(hCha)]WF-OH): for the setting “read-out: activity (group)”, the IC50 was 50 to 200 nM.

Regarding `CC(C)(C)C(=O)N[C@@H](Cc1ccccc1)C(=O)N[C@@H](CCCN)C(=O)N1CCC[C@H]1C(=O)N[C@H](CC1CCCCC1)C(=O)N[C@@H](Cc1csc2ccccc12)C(=O)N[C@@H](Cc1ccccc1)C(N)=O` [Compound 134, ^tBu-CO-Phe-Orn-Pro-cha-Bta-Phe-NH2] (Piv-F[Orn]P[dCha][Bta]F-NH2), the IC50 (read-out: activity (group)) lay in the range of 50 to 200 nM.

With `CC(=O)N[C@@H](CCCCN)C(=O)N[C@@H](Cc1ccccc1)C(=O)N[C@@H](CCCN)C(=O)N1CC[C@H]1C(=O)N[C@H](CC1CCCCC1)C(=O)N[C@@H](Cc1csc2ccccc12)C(=O)N[C@@H](Cc1ccccc1)C(N)=O` [Compound 135, Ac-Lys-Phe-Orn-Aze-cha-Bta-Phe-NH2] (Ac-KF[Orn][Aze][dCha][Bta]F-NH2), the IC50 (read-out: activity (group)) was in the range of 10 to 20 nM.

Turning to `CC(=O)NCC(=O)N[C@@H](Cc1ccccc1)C(=O)N[C@@H](CCCN)C(=O)N1CC[C@H]1C(=O)N[C@H](CC1CCCCC1)C(=O)N[C@@H](Cc1csc2ccccc12)C(=O)N[C@@H](Cc1ccccc1)C(N)=O` [Compound 136, Ac-Gly-Phe-Orn-Aze-cha-Bta-Phe-NH2] (Ac-GF[Orn][Aze][dCha][Bta]F-NH2), under “read-out: activity (group)”, the IC50 was 20 to 50 nM.

On to `CC(=O)N[C@@H](CCCNC(=N)N)C(=O)N[C@@H](Cc1ccccc1)C(=O)N[C@@H](CCCN)C(=O)N1CC[C@H]1C(=O)N[C@H](CC1CCCCC1)C(=O)N[C@@H](Cc1csc2ccccc12)C(=O)N[C@@H](Cc1ccccc1)C(N)=O` [Compound 137, Ac-Arg-Phe-Orn-Aze-cha-Bta-Phe-NH2] (Ac-RF[Orn][Aze][dCha][Bta]F-NH2), for which the IC50 (read-out: activity (group)) was 20 to 50 nM.

With `CC(=O)N[C@@H](Cc1c[nH]cn1)C(=O)N[C@@H](Cc1ccccc1)C(=O)N[C@@H](CCCN)C(=O)N1CC[C@H]1C(=O)N[C@H](CC1CCCCC1)C(=O)N[C@@H](Cc1csc2ccccc12)C(=O)N[C@@H](Cc1ccccc1)C(N)=O` [Compound 138, Ac-His-Phe-Orn-Aze-cha-Bta-Phe-NH2] (Ac-HF[Orn][Aze][dCha][Bta]F-NH2), the IC50 (read-out: activity (group)) is 50 to 200 nM.

In the case of `CC(=O)N[C@@H](CO)C(=O)N[C@@H](Cc1ccccc1)C(=O)N[C@@H](CCCN)C(=O)N1CC[C@H]1C(=O)N[C@H](CC1CCCCC1)C(=O)N[C@@H](Cc1csc2ccccc12)C(=O)N[C@@H](Cc1ccccc1)C(N)=O` [Compound 139, Ac-Ser-Phe-Orn-Aze-cha-Bta-Phe-NH2] (Ac-SF[Orn][Aze][dCha][Bta]F-NH2), where the note is “read-out: activity (group)”, the IC50 fell in the range of 50 to 200 nM.

For the molecule `CC(=O)N[C@@H](Cc1ccc(NC(=N)N)cc1)C(=O)N[C@@H](Cc1ccccc1)C(=O)N[C@@H](CCCN)C(=O)N1CC[C@H]1C(=O)N[C@H](CC1CCCCC1)C(=O)N[C@@H](Cc1csc2ccccc12)C(=O)N[C@@H](Cc1ccccc1)C(N)=O` [Compound 140, Ac-Guf-Phe-Orn-Aze-cha-Bta-Phe-NH2] (Ac-[Phe(4-guanidino)]F[Orn][Aze][dCha][Bta]F-NH2), for the setting “read-out: activity (group)”, the IC50 is 50 to 200 nM.

Regarding `CC(=O)N[C@@H](CCN)C(=O)N[C@@H](Cc1ccccc1)C(=O)N[C@@H](CCCN)C(=O)N1CC[C@H]1C(=O)N[C@H](CC1CCCCC1)C(=O)N[C@@H](Cc1csc2ccccc12)C(=O)N[C@@H](Cc1ccccc1)C(N)=O` [Compound 141, Ac-Dab-Phe-Orn-Aze-cha-Bta-Phe-NH2] (Ac-[Dab]F[Orn][Aze][dCha][Bta]F-NH2), the IC50 (read-out: activity (group)) fell in the range of 50 to 200 nM.

For the molecule `NCCC[C@H](NC(=O)[C@H](Cc1ccccc1)NC(=O)CF)C(=O)N1CCC[C@H]1C(=O)N[C@H](CC1CCCCC1)C(=O)N[C@@H](Cc1csc2ccccc12)C(=O)N[C@@H](Cc1ccccc1)C(N)=O` [Compound 142, FH2C—CO-Phe-Orn-Pro-cha-Bta-Phe-NH2] (Fluoroacetyl-F[Orn]P[dCha][Bta]F-NH2), the IC50 (activity (group)) fell in the range of 20 to 50 nM.

For the molecule `CCN(CC)CCC[C@H](NC(=O)[C@H](Cc1ccccc1)NC(C)=O)C(=O)N1CCC[C@H]1C(=O)N[C@H](CC1CCCCC1)C(=O)N[C@@H](Cc1c[nH]c2ccccc12)C(=O)N[C@@H](Cc1ccccc1)C(N)=O` [Compound 143, Ac-Phe-Orn(Et2)-Pro-cha-Trp-Phe-NH2] (Ac-F[X5]P[dCha]WF-NH2), the IC50 (read-out: activity (group)) lay in the range of 50 to 200 nM.

Regarding `CCCC[C@@H]1NC(=O)[C@H](Cc2c[nH]c3ccccc23)NC(=O)[C@@H](CC2CCCCC2)NC(=O)[C@@H]2C[C@@H](O)CN2C(=O)[C@@H](NC(=O)[C@H](Cc2ccccc2)NC(C)=O)CCCNC1=O` [Compound 144, Ac-Phe-[Orn-Hyp-cha-Trp-Nle]] (Ac-F[Orn][Hyp][dCha]W[Nle]; lactam 2-C), the IC50 (read-out: activity (group)) fell in the range of 10 to 20 nM.

As to `CCCC[C@@H]1NC(=O)[C@H](Cc2c[nH]c3ccccc23)NC(=O)[C@@H](CC2CCCCC2)NC(=O)[C@@H]2C[C@@H](O)CN2C(=O)[C@@H](NC(=O)CCc2ccccc2)CCCNC1=O` [Compound 145, 3PP-[Orn-Hyp-cha-Trp-Nle]] (Hydrocinnamoyl-[Orn][Hyp][dCha]W[Nle]; lactam 1-C), the IC50 (read-out: activity (group)) is 20 to 50 nM.

`CC(=O)N[C@@H](Cc1ccccc1)C(=O)N[C@H]1CCCNC(=O)[C@H](Cc2ccc(O)cc2)NC(=O)[C@H](Cc2c[nH]c3ccccc23)NC(=O)[C@@H](CC2CCCCC2)NC(=O)[C@@H]2CCCN2C1=O` [Compound 146, Ac-Phe-[Orn-Pro-cha-Trp-Tyr]] (Ac-F[Orn]P[dCha]WY; lactam 2-C): under “read-out: activity (group)”, the IC50 was 20 to 50 nM.

Consider `CCCC[C@@H]1NC(=O)[C@H](Cc2c[nH]c3ccccc23)NC(=O)[C@@H](Cc2ccccc2C)NC(=O)[C@@H]2CCCN2C(=O)[C@@H](NC(=O)[C@H](Cc2ccccc2)NC(C)=O)CCCNC1=O` [Compound 147, Ac-Phe-[Orn-Pro-omf-Trp-Nle]] (Ac-F[Orn]P[dPhe(2-Me)]W[Nle]; lactam 2-C), for which the IC50 (read-out: activity (group)) was in the range of 10 to 20 nM.

As for `CCCCN(CC(=O)N1CCC[C@H]1C(=O)N[C@H](CC1CCCCC1)C(=O)N[C@@H](Cc1c[nH]c2ccccc12)C(=O)N[C@@H](Cc1ccccc1)C(N)=O)C(=O)[C@H](Cc1ccccc1)NC(C)=O` [Compound 148, Ac-Phe-N(nBu)-CH2—CO-Pro-cha-Trp-Phe-NH2] (Ac-F[NBuGly]P[dCha]WF-NH2), the IC50 (read-out: activity (group)) lay in the range of 200 to 2000 nM.

With `CC(=O)N[C@@H](C)C(=O)N[C@@H](Cc1ccccc1)C(=O)N[C@@H](CCCN)C(=O)N1CC[C@H]1C(=O)N[C@H](CC1CCCCC1)C(=O)N[C@@H](Cc1csc2ccccc12)C(=O)N[C@@H](Cc1ccccc1)C(N)=O` [Compound 151, Ac-Ala-Phe-Orn-Aze-cha-Bta-Phe-NH2] (Ac-AF[Orn][Aze][dCha][Bta]F-NH2), under “read-out: activity (group)”, the IC50 lay within 20 to 50 nM.

As for `CC(=O)N[C@@H](CCCNC(N)=O)C(=O)N[C@@H](Cc1ccccc1)C(=O)N[C@@H](CCCN)C(=O)N1CC[C@H]1C(=O)N[C@H](CC1CCCCC1)C(=O)N[C@@H](Cc1csc2ccccc12)C(=O)N[C@@H](Cc1ccccc1)C(N)=O` [Compound 153, Ac-Cit-Phe-Orn-Aze-cha-Bta-Phe-NH2] (Ac-[Cit]F[Orn][Aze][dCha][Bta]F-NH2), the IC50 (read-out: activity (group)) was in the range of 20 to 50 nM.

For `CC(=O)NCC(=O)N[C@@H](Cc1ccccc1)C(=O)N[C@@H](CCCN)C(=O)N1CC[C@H]1C(=O)N[C@H](CC1CCCCC1)C(=O)N[C@@H](Cc1csc2ccccc12)C(=O)N[C@@H](Cc1ccccc1)C(N)=O` [Compound 154, Ac-Gly-Phe-Orn-Aze-cha-Bta-Phe-NH2] (Ac-GF[Orn][Aze][dCha][Bta]F-NH2), the IC50 (read-out: activity (group)) fell in the range of 10 to 20 nM.

The record behind these values is patent US20080161232A1, “C5a Receptor Antagonist” (JERINI AG, priority 2005, published 2008).
